Where a name gives a salt, the structure may show the parent alone. Bounds are passed on as bounds.

For the test, the target named is T1, TNIK (Homo sapiens, UniProt Q9UKE5).
T1 construct: purchased Promega V4158
T1 sequence (Q9UKE5 1-367 limits assumed): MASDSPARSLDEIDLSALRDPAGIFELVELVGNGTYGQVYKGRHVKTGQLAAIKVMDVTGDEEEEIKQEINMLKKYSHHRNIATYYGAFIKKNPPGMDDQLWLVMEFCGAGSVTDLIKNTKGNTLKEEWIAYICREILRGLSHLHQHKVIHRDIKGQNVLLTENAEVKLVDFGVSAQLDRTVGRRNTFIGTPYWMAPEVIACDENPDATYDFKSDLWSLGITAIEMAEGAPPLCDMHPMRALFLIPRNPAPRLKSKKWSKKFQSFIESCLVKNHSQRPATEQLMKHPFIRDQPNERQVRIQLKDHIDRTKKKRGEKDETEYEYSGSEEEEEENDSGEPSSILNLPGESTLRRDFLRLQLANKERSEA
The test can be described thus: ADP-Glo Kinase Assay, inhibition activity on TNIK. Format: biochemical. Particulars: read-out: TNIK. As to the method:
The inhibition activities on TNIK, IKKε and TBK1 were measured by a luminometer, TNIK/IKKε/TBK1 Kinase Enzyme System (Promega, Ca# V4158; Invitrogen, PR8031B, Promega, Ca# V3991) and ADP-Glo Kinase Assay using ADP-Glo™ Kinase Analysis Kit (Promega, Ca# V9101) and a kinase reaction buffer [40 mM Tris(pH 7.5), 20 mM MgCl2, 0.1 mg/mL BSA] in accordance with the manufacturer's protocol.
`CC(=O)Nc1ccc(-c2ccccc2)c2c1C(=O)NC2` [Example 160, N-(3-oxo-7-phenylisoindolin-4-yl)acetamide]: the IC50 turned out to be 1100 nM.
In the case of `O=C(Nc1ccc(-c2ccc(Cl)cc2)c2c1C(=O)NC2)c1ccccc1` [Example 179, N-(7-(4-chlorophenyl)-3-oxoisoindolin-4-yl)benzamide], the IC50 is over 20000 nM.
Regarding `COc1ccccc1-c1ccc(NC(=O)c2ccc(NCCN3CCCCCC3)cc2)c2c1CNC2=O` [Example 349, 4-((2-(Azepan-1-yl)ethyl)amino)-N-(7-(2-methoxyphenyl)-3-oxoisoindolin-4-yl)benzamide], the IC50 stood at 240 nM.
For the compound `COCCCNc1ccc(C(=O)Nc2ccc(-c3cccnc3OC)c3c2C(=O)NC3)cc1` [Example 310, 4-((3-Methoxypropyl)amino)-N-(7-(2-methoxypyridin-3-yl)-3-oxoisoindolin-4-yl)benzamide], the IC50 amounted to 390 nM.
On to `O=C(Nc1ccc(-c2cccc3ncccc23)c2c1C(=O)NC2)c1ccc(NCCN2CCCC2)cc1` [Example 386, N-(3-oxo-7-(quinolin-5-yl)isoindolin-4-yl)-4-((2-(pyrrolidin-1-yl)ethyl)amino)benzamide], for which the IC50 is 99 nM.
Consider `CCCOc1cccc(-c2ccc(NC(=O)c3ccccc3)c3c2CNC3=O)c1` [Example 44, N-(3-oxo-7-(3-propoxyphenyl)isoindolin-4-yl)benzamide], for which the IC50 was over 20000 nM.
On to `Cc1ccccc1Nc1ccc(NC(=O)c2ccc(F)cc2)c2c1CNC2=O` [Example 426, 4-Fluoro-N-(3-oxo-7-(o-tolylamino)isoindolin-4-yl)benzamide], for which the IC50 came to 1260 nM.
In the case of `COc1cccc(-c2ccc(NC(=O)c3ccc(F)cc3)c3c2CNC3=O)c1O` [Example 190, 4-Fluoro-N-(7-(2-hydroxy-3-methoxyphenyl)-3-oxoisoindolin-4-yl)benzamide], the IC50 came to 520 nM.
Turning to `O=C(Nc1ccc(-c2ccco2)c2c1C(=O)NC2)c1ccc(NCCN2CCCCC2)cc1` [Example 289, N-(7-(furan-2-yl)-3-oxoisoindolin-4-yl)-4-((2-(piperidin-1-yl)ethyl)amino)benzamide], the IC50 came out at 360 nM.
On to `Cc1cccc(Nc2ccc(NC(=O)c3ccccc3)c3c2CNC3=O)c1` [Example 436, N-(3-oxo-7-(m-tolylamino)isoindolin-4-yl)benzamide], for which the IC50 came out at 590 nM.
In the case of `CN1CCN(CCNc2ccc(C(=O)Nc3ccc(-c4ccco4)c4c3C(=O)NC4)cc2)CC1` [Example 294, N-(7-(furan-2-yl)-3-oxoisoindolin-4-yl)-4-((2-(4-methylpiperazin-1-yl)ethyl)amino)benzamide] it was 230 nM.
Turning to `O=C(Nc1ccc(-c2cccc(F)c2F)c2c1C(=O)NC2)c1ccc(NCCCN2CCCC2)cc1` [Example 366, N-(7-(2,3-difluorophenyl)-3-oxoisoindolin-4-yl)-4-((3-(pyrrolidin-1-yl)propyl)amino)benzamide hydrochloride], the IC50 was found to be 170 nM.
In the case of `O=C(Nc1ccc(-c2ccoc2)c2c1C(=O)NC2)c1ccccc1` [Example 150, N-(7-(furan-3-yl)-3-oxoisoindolin-4-yl)benzamide] it was 2700 nM; in that of `O=C(Nc1ccc(Nc2cnccn2)c2c1C(=O)NC2)c1ccc(F)cc1` [Example 429, 4-Fluoro-N-(3-oxo-7-(pyrazin-2-ylamino)isoindolin-4-yl) benzamide], 530 nM.
In the case of `O=C(Nc1ccc(-c2ccco2)c2c1C(=O)NC2)c1ccc(NCCN2CCOCC2)cc1` [Example 290, N-(7-(furan-2-yl)-3-oxoisoindolin-4-yl)-4-((2-morpholinoethyl)amino)benzamide], the IC50 was 180 nM.
For the compound `CC(C)(O)c1ccc(NC(=O)c2ccc(F)cc2)c2c1CNC2=O` [Example 393, 4-Fluoro-N-(7-(2-hydroxypropan-2-yl)-3-oxoisoindolin-4-yl) benzamide], the IC50 amounted to 2570 nM.

The record behind these values is US9856216B2, “Compounds as TNIK, IKKε and TBK1 inhibitors and pharmaceutical composition comprising same” (GREEN CROSS CORPORATION, priority 2015, dated 2018).
